Test system: LbetaT2 cells
Assay: Intracellular calcium mobilization (Fura2) in LbetaT2 cells
Assay type: cell-based, murine
Details: pre-treatment with 100 nM cetrorelix; data not shown
Method: Figure 5 Effect of treatments on intracellular calcium mobilization. Cells were loaded with Fura 2-AM. At the time of the experiment 100 µM EGTA was added 30 sec before addition of 300 µM of CaCl2 (Ca^2+) to the medium as indicated, and cells were then stimulated with 10 nM of wild type (WT), mutant (R31C) or equimolar combination (10 nM WT +10 nM R31C) or vehicle for 3 min. In the upper panel, representative curves of single cell recording. Each experiment mean was analysed using One-way ANOVA followed by Tukey's Multiple comparison test. In the lower panels, histograms show the means ± SEM (n = 4) of the response to ligands as calcium peak and as area under the curve (AUC). […] Representative of at least three independent experiments, *p<0.05.
LbetaT2 cells were kept in serum free medium overnight and then loaded with 2 µM Fura2-AM for 45 min at 37°C. The experiment was conducted in HEPES buffer (in mM; 116 NaCl, 5.6 KCl, 1.2 MgCl2, 5 NaHCO3, 1 NaH2PO4, 20 HEPES ph 7.4) in presence of extracellular Ca^2+ (EGTA 100 µM + CaCl2 300 µM). Single images of fluorescent emission at 510 nm under excitation at 340 and 380 nm were taken every 5 Sec. Changes in [Ca^2+]i in response to GnRHs were monitored using the Fura2 340/380 fluorescence ratio. Basal ratio was arbitrarily considered as 1. Ca^2+ responses over basal level were given either as maximal rise of [Ca^2+]i or as area under the curve (for 2 min after agonist addition).

cetrorelix [reference compound]
calcium responses to WT and R31C after antagonist pre-treatment: abolished responses to both ligands
